Patent US20260315468A1, “PHARMACEUTICAL COMPOSITION AND USE THEREOF” (SHANGHAI ALLIST PHARMACEUTICAL CO., LTD., priority 2022, published 2026)

Columns and labels:
[1] = Body weight and safety in the Ba/F3 EGFR-G724S xenograft model; format: in vivo, B-NDG mice; details: 15, 30 and 50 mg/kg, orally, once per day, two weeks
Text: (§1) This study was used for evaluate the anti-tumor efficacy of furmonertinib mesilate in the female (B-NDG) immune deficiency mice bearing tumors of Ba/F3 EGFR-G724S engineered cells.
(§2) Experimental animals: B-NDG mice, female, 6-8 weeks, and weighing 18-20 g.
(§3) Animal modeling and random grouping: Ba/F3 EGFR-G724S cells were cultivated, cells were collected, and re-suspended and counted in serum-free medium, the re-suspended cells with the addition of a matrigel at 1:1 were subcutaneous inoculated at 1×10^6 cells/0.1 mL in B-NDG mice. When the average tumor volume was about 80-120 mm^3, the animals were randomly grouped into four experiment groups according to the tumor size. Each group contained 12 mice. The grouping day was defined as Day 0, i.e., D0.
The experimental scheme: B-NDG mice were subcutaneously inoculated with Ba/F3 EGFR-G724S cells to establish a cell-line-derived xenograft model. […] During the whole experiment, the body weight and the tumor sizes of the mice were measured twice each week, and whether or not the presence of toxic reactions was observed. […]

[2] = tested on: Ba/F3 EGFR-L747S; test: Anti-proliferation, CellTiter-Glo Luminescent Cell Viability Assay; format: cell-based; details: Mus musculus, BaF3, 72 h, 3 days
Text: (§4) The objective of the test example 1 was to evaluate the anti-proliferation effect of Furmonertinib mesilate on 18 cell lines (Ba/F3 EGFR-G719S, Ba/F3 EGFR-S768I, Ba/F3 EGFR-G724S, Ba/F3 EGFR-L718Q, Ba/F3 EGFR-Del19/G724S, Ba/F3 EGFR-E709H, Ba/F3 EGFR-L747S, Ba/F3 EGFR-E709V, Ba/F3 EGFR-L747V, Ba/F3 EGFR-E709-710>D, Ba/F3 EGFR-E709A, Ba/F3 EGFR-Del19/C797S, Ba/F3 EGFR-L858R/C797S, Ba/F3 EGFR-L747S/G719A, Ba/F3-EGFR-L858R-L718V, Ba/F3-EGFR-L858R-L718Q, Ba/F3-EGFR-E709K-G719A, and Ba/F3 EGFR-L861Q) using standard CellTiter-Glo® Luminescent Cell Viability Assay. Further, AZD9291 was used as control compound.
(§5) Cell culture: Ba/F3 EGFR-G719S, Ba/F3 EGFR-S768I, Ba/F3 EGFR-G724S, Ba/F3 EGFR-L718Q, Ba/F3 EGFR-Del19/G724S, Ba/F3 EGFR-E709H, Ba/F3 EGFR-L747S, Ba/F3 EGFR-E709V, Ba/F3 EGFR-L747V, Ba/F3 EGFR-E709-710>D, Ba/F3 EGFR-E709A, Ba/F3 EGFR-Del19/C797S, Ba/F3 EGFR-L858R/C797S, Ba/F3 EGFR-L747S/G719A, Ba/F3-EGFR-L858R-L718V, Ba/F3-EGFR-L858R-L718Q, Ba/F3-EGFR-E709K-G719A, and Ba/F3 EGFR-L861Q engineered cells were obtained from Kyinno, and maintained at 37° C. with 5% CO2, in the RPMI1640 media supplemented with 10% fetal bovine serum.
(§6) The cells during the logarithmic growth period were harvested and counted by using blood counting chamber. The cell viability was over 90% which was determined by trypan blue assay. The cell concentration was adjusted with culture medium. 90 μl cell suspensions was added to two 96-well plates to obtain the final cell density of 3000 cells per well. The plates were incubated in humidified incubator at 37° C. with 5% CO2.
(§7) The solution of tested compounds (Furmonertinib mesilate and AZD9291) was diluted 1000-fold with DMSO. Then, said DMSO solution was diluted 100-fold with PBS (Phosphate Buffered Saline) to obtain 10× working solution. And 10× reference control solution was prepared by Phosphate Buffered Saline (PBS). 10 μl working solution (10×) was dispensed to each well (triplicate for each concentration). (The top concentration was 3160 nM, 3.16-fold dilution and 10 different concentrations. The final concentration of DMSO in culture medium was 0.1% [v/v]). The plate was cultured for 3 days.
(§8) On Day 3, CellTiter-Glo® reagent (a luciferase ATP bioluminescence detection reagent) was thawed, and then the cell plate was equilibrated at room temperature for approximately 30 minutes. 100 μl CellTiter-Glo® Reagent which was equal to the volume of cell culture medium present in each well was added. The obtained content was mixed for 5 minutes on an orbital shaker to induce cell lysis. The cell plate was incubated at room temperature for 20 minutes to stabilize luminescent signal. The luminescence was recorded by using Multi-mode Microplate Reader.
(§9) [formula] • blank control: medium control; • vehicle control: culture medium with 0.1% DMSO
(§10) The graphical curves were fitted using a nonlinear regression model with a sigmoidal dose response.

[3] = tested on: Ba/F3 EGFR-E709A; test: as above; format: cell-based; details: Mus musculus, BaF3, 72 h, 3 days
Text: as §4, §5, §6, §7, §8, §9, §10

[4] = tested on: Ba/F3 EGFR-E709-710 > D; test: as above; format: cell-based; details: Mus musculus, BaF3, 72 h, 3 days
Text: as §4, §5, §6, §7, §8, §9, §10

[5] = tested on: Ba/F3 EGFR-G724S; test: as above; format: cell-based; details: Mus musculus, BaF3, 72 h, 3 days
Text: as §4, §5, §6, §7, §8, §9, §10

[6] = tested on: Ba/F3 EGFR-G719S; test: as above; format: cell-based; details: Mus musculus, BaF3, 72 h, 3 days
Text: as §4, §5, §6, §7, §8, §9, §10

[7] = tested on: Ba/F3-EGFR-L858R-L718Q; test: as above; format: cell-based; details: 72 h, 3 days
Text: as §4, §5, §6, §7, §8, §9, §10

[8] = tested on: Ba/F3 EGFR-L747V; test: as above; format: cell-based; details: Mus musculus, BaF3, 72 h, 3 days
Text: as §4, §5, §6, §7, §8, §9, §10

[9] = tested on: Ba/F3 EGFR-L858R/C797S; test: as above; format: cell-based; details: Mus musculus, BaF3, 72 h, 3 days
Text: as §4, §5, §6, §7, §8, §9, §10

[10] = tested on: Ba/F3 EGFR-E709V; test: as above; format: cell-based; details: Mus musculus, BaF3, 72 h, 3 days
Text: as §4, §5, §6, §7, §8, §9, §10

[11] = tested on: Ba/F3 EGFR-Del19/G724S; test: as above; format: cell-based; details: Mus musculus, BaF3, 72 h, 3 days
Text: as §4, §5, §6, §7, §8, §9, §10

[12] = tested on: Ba/F3 EGFR-L747S/G719A; test: as above; format: cell-based; details: Mus musculus, BaF3, 72 h, 3 days
Text: as §4, §5, §6, §7, §8, §9, §10

[13] = tested on: Ba/F3-EGFR-L858R-L718V; test: as above; format: cell-based; details: 72 h, 3 days
Text: as §4, §5, §6, §7, §8, §9, §10

[14] = tested on: Ba/F3 EGFR-Del19/C797S; test: as above; format: cell-based; details: Mus musculus, BaF3, 72 h, 3 days
Text: as §4, §5, §6, §7, §8, §9, §10

[15] = tested on: Ba/F3 EGFR-S768I; test: as above; format: cell-based; details: Mus musculus, BaF3, 72 h, 3 days
Text: as §4, §5, §6, §7, §8, §9, §10

[16] = tested on: Ba/F3 EGFR-L861Q; test: as above; format: cell-based; details: Mus musculus, BaF3, 72 h, 3 days
Text: as §4, §5, §6, §7, §8, §9, §10

[17] = tested on: Ba/F3 EGFR-E709H; test: as above; format: cell-based; details: Mus musculus, BaF3, 72 h, 3 days
Text: as §4, §5, §6, §7, §8, §9, §10

[18] = tested on: Ba/F3-EGFR-E709K-G719A; test: as above; format: cell-based; details: 72 h, 3 days
Text: as §4, §5, §6, §7, §8, §9, §10

[19] = tested on: Ba/F3 EGFR-L718Q; test: as above; format: cell-based; details: Mus musculus, BaF3, 72 h, 3 days
Text: as §4, §5, §6, §7, §8, §9, §10

[20] = tested on: EGFR T790M positive advanced non-small cell lung cancer; details: oral, 80 mg daily dose; patients progressed after prior systematic anti-tumor therapy; cited from earlier work
[21] = tested on: 18 Ba/F3 EGFR mutant cell lines; test: Anti-proliferation effect on 18 cell lines (overall result in words); format: cell-based; details: all 18 Ba/F3 EGFR mutant cell lines of Table 1
Text: as §4, with “compound. […]” for “compound.”
The cells during the logarithmic growth period were harvested and counted by using blood counting chamber. The cell viability was over 90% which was determined by trypan blue assay. […]
On Day 3, CellTiter-Glo® reagent (a luciferase ATP bioluminescence detection reagent) was thawed, and then the cell plate was equilibrated at room temperature for approximately 30 minutes. […] The luminescence was recorded by using Multi-mode Microplate Reader. […]

[22] = tested on: Ba/F3 EGFR-G724S; test: Anti-tumor effect in Ba/F3 EGFR-G724S (KC-1385) cell xenograft model; format: in vivo, B-NDG mice; details: orally, once per day, two weeks
Text: as §1, §2, §3
The experimental scheme: B-NDG mice were subcutaneously inoculated with Ba/F3 EGFR-G724S cells to establish a cell-line-derived xenograft model. The experiment was divided into 15 mg/kg group of furmonertinib mesilate, 30 mg/kg group of furmonertinib mesilate, 50 mg/kg group of furmonertinib mesilate and vehicle group, wherein each group contained 12 animals, orally administered with the administration volume of 10 uL/g, and the vehicle group was administered with the same amount of vehicle, the administration was carried out once per day and lasted for two weeks. During the whole experiment, the body weight and the tumor sizes of the mice were measured twice each week, and whether or not the presence of toxic reactions was observed.
Tumor Volume (TV) was calculated by: TV=0.5*a*b^2, where a was the long diameter of the tumor and b was the short diameter of the tumor.
The curves for the tumor volume change of four experimental groups were shown in FIG. 1, and the curves for the body weight change of four experimental groups were shown in FIG. 2.

[23] = orally, once per day, 20 mg-240 mg; cited from earlier work

Row | SMILES | IC50 [2] | IC50 [3] | IC50 [4] | IC50 [5] | IC50 [6] | IC50 [7] | IC50 [8] | IC50 [9] | IC50 [10] | IC50 [11] | IC50 [12] | IC50 [13] | IC50 [14] | IC50 [15] | IC50 [16] | IC50 [17] | IC50 [18] | IC50 [19] | other results
1 | C=CC(=O)Nc1cc(Nc2nccc(-c3cn(C)c4ccccc34)n2)c(OCC(F)(F)F)nc1N(C)CCN(C)C [Furmonertinib mesilate] | 15 nM | 17.9 nM | 89.6 nM | 21.3 nM | 12.1 nM | 289 nM | 31.6 nM | 2210 nM | 14.3 nM | 3.84 nM | 16.5 nM | 23.9 nM | 1220 nM | 21.6 nM | 3.8 nM | 31.3 nM | 39 nM | 501 nM | effect on the body weight of mice [1]: little effect on the body weight of mice; safety [1]: good safety; anti-tumor effect [20]: relatively good anti-tumor effect; disease progression [20]: can alleviate or stabilize the disease progression; anti-proliferation effect [21]: good anti-proliferation effect; anti-tumor activity ([22]; 15 mg/kg): moderate anti-tumor activity; anti-tumor activity ([22]; 30 mg/kg): extremely significant anti-tumor activity; anti-tumor activity ([22]; 50 mg/kg): extremely significant anti-tumor activity; adverse events of subjects [23]: mild or moderate; dose-related toxic reaction [23]: does not occur; tolerance and safety [23]: the tolerance and the safety are good
2 | C=CC(=O)Nc1cc(Nc2nccc(-c3cn(C)c4ccccc34)n2)c(OC)cc1N(C)CCN(C)C [AZD9291, reference compound] | 37.8 nM | 64.2 nM | 197 nM | 73 nM | 55.4 nM | 942 nM | 53.7 nM | 2190 nM | 47.6 nM | 16.3 nM | 92.1 nM | 172 nM | 1980 nM | 85.5 nM | 24.6 nM | 124 nM | 164 nM | > 1000 nM | 
